Publication PMC6835155, “Lessons from LIMK1 enzymology and their impact on inhibitor design” (Biochemical Journal, 2019)
Counter-ions that a name gives are not always drawn. Like-named read-outs stand apart in the source and are kept apart here.

Key:
[1] = molecular target: T1, LIMK2KD (Homo sapiens, UniProt P53671); test: Differential (dynamic) scanning fluorimetry (DSF) assay, LIMK2KD; format: binding; settings: for ΔTm at 10 µM: read-out: TM Shift LIMK2 (K)
T1 construct: The cDNA coding for LIMK2 residues 330 to 632 was PCR amplified; His6 (N, cleaved yes); made in house; host or cells: baculovirus; Sf9 for virus, TriEx insect cells for expression

[2] = molecular target: T2, LIMK1KD (Homo sapiens, UniProt P53667); test: Differential (dynamic) scanning fluorimetry (DSF) assay, LIMK1KD; format: binding; settings: for ΔTm at 10 µM: read-out: TM Shift LIMK1 (K)
T2 construct: His6 (N, cleaved yes); made in house; host or cells: baculovirus; Sf9 for virus, TriEx insect cells for expression

[3] = LIMK2KD, compound 10 µM, single shot, 10 µM
[4] = 2 µM LIMK1KD, compound 10 µM, single shot
[5] = LIMK2KD, compound 10 µM, single shot

T1 sequence (P53671 330-632): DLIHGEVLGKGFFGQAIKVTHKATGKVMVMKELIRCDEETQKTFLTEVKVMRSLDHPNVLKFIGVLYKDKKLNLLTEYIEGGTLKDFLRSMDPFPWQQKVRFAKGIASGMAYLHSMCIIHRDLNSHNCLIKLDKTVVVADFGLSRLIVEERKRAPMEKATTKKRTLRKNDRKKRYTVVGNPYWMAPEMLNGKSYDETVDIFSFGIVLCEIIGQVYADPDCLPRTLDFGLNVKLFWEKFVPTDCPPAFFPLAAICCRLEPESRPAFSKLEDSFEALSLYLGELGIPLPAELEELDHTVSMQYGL
T2 sequence (P53667 330-637): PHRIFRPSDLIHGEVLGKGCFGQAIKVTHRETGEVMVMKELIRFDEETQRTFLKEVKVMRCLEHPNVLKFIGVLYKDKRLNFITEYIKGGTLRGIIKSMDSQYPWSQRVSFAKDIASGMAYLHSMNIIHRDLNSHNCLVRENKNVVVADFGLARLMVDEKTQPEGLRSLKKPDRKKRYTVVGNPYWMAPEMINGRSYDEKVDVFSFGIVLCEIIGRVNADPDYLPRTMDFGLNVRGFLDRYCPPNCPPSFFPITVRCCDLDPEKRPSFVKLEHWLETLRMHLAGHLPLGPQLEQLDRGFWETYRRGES

Row | TM Shift LIMK1 (K) [2, 4] | TM Shift LIMK2 (K) [1, 5] | ΔTm at 10 µM [2, 4] | ΔTm at 10 µM [1, 5] | SMILES | further results
1 | 0.0 K |  |  |  | CCN1CCN(c2ccc(Nc3cc(N(C)C(=O)Nc4c(Cl)c(OC)cc(OC)c4Cl)ncn3)cc2)CC1 [NVP-BGJ398] | TM Shift LIMK2 (K) [1, 3]: -0.5 K; TM Shift LIMK2 (K) ([1]; LIMK2KD, compound 10 µM, single shot, listed as BGJ398 (NVP-BGJ398), 10 µM): 0.5 K; TM Shift LIMK1 (K) ([2]; 2 µM LIMK1KD, compound 10 µM, single shot, listed as BGJ398 (NVP-BGJ398)): 0.7 K
2 | -0.2 K | 1.6 K |  |  | Cc1ccc(C(=O)Nc2cccc(C(F)(F)F)c2)cc1Nc1nc(-c2cccnc2)nc2c1cnn2C [NVP-BHG712] | 
3 | 1.5 K | 0.2 K |  |  | Fc1cc(-c2cccc3ncc(-c4cnn(C5CCNCC5)c4)nc23)cc(F)c1CN1CCOCC1 [NVP-BSK805 2HCl] | 
4 | -0.5 K | 2.9 K |  |  | Cn1cc(-c2ccc3ncc(Cc4ccc5ncccc5c4)n3n2)cn1 [NVP-BVU972] | 
5 |  |  | 1.3 °C | 0.3 °C | COC(=O)c1ccc2c(c1)NC(=O)/C2=C(\Nc1ccc(N(C)C(=O)CN2CCN(C)CC2)cc1)c1ccccc1 [Nintedanib] | 
6 |  |  | 2.2 °C | 0.2 °C | COc1cccc2cc(-c3nc([C@H]4CC[C@H](C(=O)O)CC4)n4ncnc(N)c34)[nH]c12 [OSI-027] | 
7 | 0.1 K | -0.1 K |  |  | C#Cc1cccc(Nc2ncnc3cc(OCCOC)c(OCCO)cc23)c1 [OSI-420] | 
8 |  |  | 0.7 °C | 6.2 °C | O=C(Nc1ccc(OC(F)(F)F)cc1)c1sccc1NCc1ccnc2ccccc12 [OSI-930] | 
9 | -1.2 K | 0.8 K |  |  | NCC(=O)Nc1ccc(-n2nc(C(F)(F)F)cc2-c2ccc3c(ccc4ccccc43)c2)cc1 [OSU-03012 (AR-12)] | 
10 |  |  | 1.9 °C |  | Cc1[nH]c(/C=C2\C(=O)Nc3ccccc32)c(C)c1CCC(=O)O [Orantinib] | TM Shift LIMK2 (K) [1, 3]: 1.0 K; TM Shift LIMK2 (K) ([1]; LIMK2KD, compound 10 µM, single shot, listed as TSU-68 (SU6668, Orantinib), 10 µM): 2.8 K; TM Shift LIMK1 (K) ([2]; 2 µM LIMK1KD, compound 10 µM, single shot, listed as TSU-68 (SU6668, Orantinib)): 1.7 K
11 | 0.7 K | 1.3 K |  |  | CN1CCC(c2c(O)cc(O)c3c(=O)cc(-c4ccccc4Cl)oc23)C1CO (stereo not drawn) [P276-00] | 
12 | -0.8 K | -0.3 K |  |  | COc1cccc(-c2cc(=O)c3ccccc3o2)c1N [PD98059] | 
13 | 0.4 K | 2.0 K |  |  | C=CC(=O)Nc1ccc2ncnc(Nc3cccc(Br)c3)c2c1 [PD168393] | 
14 |  |  | 1.1 °C | 1.2 °C | CCN(CC)CCCCNc1ncc2cc(-c3cc(OC)cc(OC)c3)c(NC(=O)NC(C)(C)C)nc2n1 [PD173074] | 
15 |  |  | 0.1 °C | 0.9 °C | O=C(NOCC1CC1)c1ccc(F)c(F)c1Nc1ccc(I)cc1Cl [PD184352 (CI-1040)] | 
16 | 0.6 K | 2.8 K |  |  | O=C(NOCC(O)CO)c1cc(Br)c(F)c(F)c1Nc1ccc(I)cc1F (stereo not drawn) [PD318088] | 
17 | 2.9 K | 0.2 K |  |  | CN(c1ccccc1CNc1nc(Nc2ccc3c(c2)CC(=O)N3)ncc1C(F)(F)F)S(C)(=O)=O [PF 431396] | 
18 | 1.1 K |  |  |  | CN(c1ncccc1CNc1nc(Nc2ccc3c(c2)CC(=O)N3)ncc1C(F)(F)F)S(C)(=O)=O [PF-00562271] | TM Shift LIMK2 (K) [1, 3]: 0.3 K
19 | -0.5 K |  |  |  | CN(c1ncccc1CNc1nc(Nc2ccc3c(c2)CC(=O)N3)ncc1C(F)(F)F)S(C)(=O)=O [PF-562271] | TM Shift LIMK2 (K) [1, 3]: -0.7 K
20 | 1.0 K | 0.7 K |  |  | CS(=O)(=O)c1cccc(CNc2nc(Nc3ccc4c(c3)CCC(=O)N4)ncc2C(F)(F)F)c1 [PF-573228] | 
21 | 1.5 K | -0.2 K |  |  | Nc1nccc(-c2c(-c3ccc(F)cc3)ncn2C2CCCCC2)n1 [PF-670462] | 
22 | 0.7 K | -0.4 K |  |  | Cc1nc(Nc2n[nH]c3c2CN(C(=O)N[C@H](CN(C)C)c2ccccc2)C3(C)C)c2sccc2n1 [PF-03758309] | 
23 | 1.6 K |  |  |  | CCc1cncnc1N1CCN(Cc2nc3ccc(C(F)(F)F)cc3[nH]2)CC1 [PF-04708671] | TM Shift LIMK2 (K) [1, 3]: 1.7 K
24 | 0.4 K |  |  |  | CCc1cncnc1N1CCN(Cc2nc3ccc(C(F)(F)F)cc3[nH]2)CC1 [PF-4708671] | TM Shift LIMK2 (K) [1, 3]: 3.5 K

Row | TM Shift LIMK1 (K) [2, 4] | TM Shift LIMK2 (K) [1, 5] | ΔTm at 10 µM [2, 4] | ΔTm at 10 µM [1, 5] | SMILES | further results
25 |  |  | 1.3 °C | -0.8 °C | Nc1ncnc2c1c(COc1cccc(Cl)c1)nn2C1CCOCC1 [PF-4800567] | 
26 |  |  | 1.3 °C | 0.1 °C | CNC(=O)c1ccc(C)c(-n2c(C)cc(OCc3ccc(F)cc3F)c(Br)c2=O)c1 [PH-797804] | 
27 |  |  | 1.3 °C | -0.4 °C | Cc1[nH]c(/C=C2\C(=O)Nc3ccc(S(=O)(=O)Cc4c(Cl)cccc4Cl)cc32)c(C)c1C(=O)N1CCC[C@@H]1CN1CCCC1 [PHA-665752] | 
28 |  |  | 5 °C | 0.4 °C | CCc1cccc(CC)c1NC(=O)N1Cc2n[nH]c(NC(=O)c3ccc(N4CCN(C)CC4)cc3)c2C1 [PHA-680632] | 
29 | 1.2 K | 0.4 K |  |  | O=C1NCCc2[nH]c(-c3ccncc3)cc21 [PHA-767491] | 
30 |  |  | 1 °C | 4.1 °C | CC(C)CC(=O)Nc1[nH]nc2c1CN(C(=O)C1CCN(C)CC1)C2(C)C [PHA-793887] | 
31 | 0.6 K | 1.6 K |  |  | CCCCCCCCCCCCc1ccc(S(=O)(=O)Nc2nncs2)cc1 [PHT-427] | 
32 |  |  | -1 °C | 0.3 °C | Oc1cccc(-c2nc(N3CCOCC3)c3oc4ncccc4c3n2)c1 [PI-103] | 
33 | 3.3 K | 2.4 K |  |  | Cc1ccc([N+](=O)[O-])cc1S(=O)(=O)N(C)/N=C/c1cnc2ccc(Br)cn12 [PIK-75] | 
34 |  |  |  |  | CC(=O)Nc1nc(C)c(-c2ccc(Cl)c(S(=O)(=O)NCCO)c2)s1 [PIK-93] | TM Shift LIMK2 (K) ([1]; 10 µM): 1.7 K; TM Shift LIMK1 (K) [2]: 1.0 K
35 |  |  | 2.5 °C | 3.8 °C | CCCS(=O)(=O)Nc1ccc(F)c(C(=O)c2c[nH]c3ncc(Cl)cc23)c1F [PLX-4720] | 
36 | 2.0 K | 0.0 K |  |  | Cc1ccc(-c2nn(C(C)(C)C)c3ncnc(N)c23)cc1 [PP1] | 
37 | 2.0 K | 2.4 K |  |  | CC(C)(C)n1nc(-c2ccc(Cl)cc2)c2c(N)ncnc21 [PP2] | 
38 | 0.2 K | -0.9 K |  |  | COc1ccc(Cl)cc1NC(=O)Nc1cc(C)nc2ccccc12 [PQ 401] | 
39 |  |  | -0.6 °C | -1 °C | NC(=O)c1cnc(N[C@@H]2CCCC[C@@H]2N)nc1Nc1cccc(-n2nccn2)c1 [PRT062607 (P505-15, BIIB057) HCl] | 
40 |  |  | 1.6 °C | 1.5 °C | C1=C/COCc2cc(ccc2OCCN2CCCC2)Nc2nccc(n2)-c2cccc(c2)COC/1 [Pacritinib (SB1518), Pacritinib] | 
41 | 0.0 K | 10.6 K |  |  | COc1ccc(COc2cc3oc(=O)c4cc(C(C)O)ccc4c3cc2OC)cc1 (stereo not drawn) [Palomid 529 (P529)] | 
42 |  |  | -0.7 °C | 1.5 °C | CCOc1cc2ncc(C#N)c(Nc3ccc(F)c(Cl)c3)c2cc1NC(=O)/C=C/CN(C)C [Pelitinib (EKB-569), Pelitinib] | 
43 |  |  | -0.3 °C | 0.6 °C | [H]/N=C(/N)N/C(=N/[H])NCCc1ccccc1 [Phenformin HCl] | 
44 |  |  | -0.6 °C | 0.8 °C | Oc1cc(O)cc(/C=C/c2ccc(O)c(O)c2)c1 [Piceatannol] | 
45 | 2.2 K |  |  |  | CS(=O)(=O)N1CCN(Cc2cc3nc(-c4cccc5[nH]ncc45)nc(N4CCOCC4)c3s2)CC1 [Pictilisib] | TM Shift LIMK2 (K) [1, 3]: 0.1 K
46 |  |  | -0.1 °C | 0.4 °C | COc1ccc(Cl)c(Nc2nc3ccccc3nc2NS(=O)(=O)c2cccc(NC(=O)C(C)(C)N)c2)c1 [Pilaralisib] | 
47 |  |  | 0.8 °C | 2.1 °C | O=C(NC[C@H](O)CO)c1ccncc1Nc1ccc(I)cc1F [Pimasertib (AS-703026), Pimasertib] | 

Row | SMILES | TM Shift LIMK1 (K) [2, 4] | TM Shift LIMK2 (K) [1, 5] | ΔTm at 10 µM [2, 4] | ΔTm at 10 µM [1, 5] | further results
48 | CCOc1cc2ncc(C#N)c(Nc3ccc(OCc4ccccn4)c(Cl)c3)c2cc1NC(=O)/C=C/CN(C)C [Neratinib (HKI-272), Neratinib] |  |  | 0.2 °C |  | ΔTm at 10 µM [1]: 1 °C
49 | Cc1cn(-c2cc(NC(=O)c3ccc(C)c(Nc4nccc(-c5cccnc5)n4)c3)cc(C(F)(F)F)c2)cn1 [Nilotinib (AMN-107), Nilotinib] |  |  | 0.5 °C | 0.4 °C | 
50 | OCCn1cc(-c2cnc3nnn(Cc4ccc5ncccc5c4)c3n2)cn1 [PF-04217903] | 0.3 K | -0.1 K |  |  | 
51 | COc1ccc(-c2cc3c(C)nc(N)nc3n([C@H]3CC[C@H](OCCO)CC3)c2=O)cn1 [PF-04691502] | 0.9 K | 0.6 K |  |  | 
52 | Cc1ccccc1-n1c(Cn2ncc3c(N)ncnc32)nc2cccc(C)c2c1=O [PIK-293] | 0.6 K | 0.9 K |  |  | 
53 | Nc1ncnc2c1c(-c1cnc3[nH]ccc3c1)nn2C1CCCC1 [PP121] | 3.6 K | 2.7 K |  |  | 
54 | CC(=O)c1c(C)c2cnc(Nc3ccc(N4CCNCC4)cn3)nc2n(C2CCCC2)c1=O [Palbociclib (PD-0332991) HCl, Palbociclib] |  |  | 0.5 °C | 0.2 °C | 
55 | Cc1ccc(C(=O)Nc2ccc(CN3CCN(C)CC3)c(C(F)(F)F)c2)cc1C#Cc1cnc2cccnn12 [Ponatinib (AP24534), Ponatinib] |  |  | 5 °C | 4.6 °C | 
